Drawing on patent US10052330B2, “Substituted pyrido[3,4-b]pyrazines as Syk inhibitors” (HUTCHISON MEDIPHARMA LIMITED, priority 2011, dated 2018), this text covers IC50 for 21 compounds.

As a reminder, the IC50 is the point on the concentration scale where inhibition reaches its midpoint.

Molecules are shown by their SMILES.

In assay [1] the target is Syk kinase (Homo sapiens, UniProt P43405). The assay can be described thus: Syk kinase enzymatic assay (Kit-Tyr 2 Peptide). Format: biochemical. Particulars: 8 concentrations, 1 μM down to 0.0003 μM; upper bound of each range is 'less than'; read-out: IC50: Enzymatic Activity (Syk kinase).
Assay [2] concerns RBL-2H3 cells. The assay can be described thus: IgE-induced Beta-hexosaminidase secretion in RBL-2H3 cells. Format: cell-based. Particulars: Rattus norvegicus, RBL-2H3, RBL-2H3 cells sensitized with SPE-7, stimulated with DNP-BSA; upper bound of each range is 'less than'; read-out: IC50, IgE-induced Beta-hexosaminidase secretion.

On to `O=C(CC(F)(F)F)N1CCN(c2ccc(-c3cc4nccnc4c(NC[C@@H]4CNCCO4)n3)cc2)CC1` [Compound 411], for which the IC50 in assay [1] and in assay [2] was 1 to 100 nM in each case.

Turning to `COCC(=O)N1CCC(c2ccc(-c3cc4nccnc4c(NC[C@@H]4CNCCO4)n3)cc2)CC1` [Compound 505], the IC50 in assay [1] and in assay [2] was 1 to 100 nM each time.

`CC(=O)N(C)C1CCN(c2ccc(-c3cc4nccnc4c(NC[C@@H]4CNCCO4)n3)cc2)CC1` [Compound 420]: the IC50 in assay [1] was 1 to 100 nM; in assay [2], 100 to 1000 nM.

In the case of `CC(=O)N1CCC(c2ccc(-c3cc4nccnc4c(NC[C@@H]4CNCCO4)n3)cc2)CC1` [Compound 418], the concentration for half-maximal inhibition (IC50) in assay [1] and in assay [2] was 1 to 100 nM each time.

As for `CC(F)(F)C(=O)N1CCN(c2ccc(-c3cc4nccnc4c(NC[C@@H]4CNCCO4)n3)cc2)CC1` [Compound 438], the IC50 in assay [1] and in assay [2] was 1 to 100 nM throughout.

As to `N#CC1(C(=O)N2CCN(c3ccc(-c4cc5nccnc5c(NCC5CNCCO5)n4)cc3)CC2)CC1` (stereo not drawn) [Compound 423], the IC50 in assay [1] and in assay [2] was 1 to 100 nM throughout.

On to `CC1CN(c2ccc(-c3cc4nccnc4c(NCC4CNCCC4(F)F)n3)cc2)CCO1` (stereo not drawn) [Compound 309], for which the IC50 in assay [1] and in assay [2] was 1 to 100 nM in each case.

Regarding `FC1(F)CCN(c2ccc(-c3cc4nccnc4c(NC[C@@H]4CNCCO4)n3)cc2)CC1` [Compound 229], the IC50 in assay [1] and in assay [2] was 1 to 100 nM each time.

`NC(=O)N1CCO[C@H](CNc2nc(-c3ccc(N4CCOCC4)cc3)cc3nccnc23)C1` [Compound 347]: the 50% inhibitory concentration (IC50) in assay [1] and in assay [2] was 1 to 100 nM throughout.

Consider `O=S(=O)(C1CC1)N1CCN(c2ccc(-c3cc4nccnc4c(NC[C@@H]4CNCCO4)n3)cc2)CC1` [Compound 400, (S)-7-(4-(4-(cyclopropylsulfonyl)piperazin-1-yl)phenyl)-N-(morpholin-2-ylmethyl)pyrido[4,3-b]pyrazin-5-amine], for which the IC50 in assay [1] and in assay [2] was 1 to 100 nM each time.

On to `CNc1ccc(-c2cc3nccnc3c(NC[C@@H]3CNCCO3)n2)cc1` [Compound 143], for which the IC50 in assay [1] and in assay [2] was 1 to 100 nM each time.

On to `CN(C)c1ccc(-c2cc3nccnc3c(NC[C@H]3CNCCO3)n2)cc1` [Compound 92], for which the IC50 in assay [1] and in assay [2] was 100 to 1000 nM each time.

As to `CS(=O)(=O)N1CCC(c2ccc(-c3cc4nccnc4c(NCC4CNCCC4(F)F)n3)cc2)CC1` (stereo not drawn) [Compound 447], the IC50 in assay [1] and in assay [2] was 1 to 100 nM each time.

As to `CN1CCC(c2ccc(-c3cc4nccnc4c(NC[C@@H]4CN(S(C)(=O)=O)CCO4)n3)cc2)CC1` [Compound 460], the IC50 in assay [1] and in assay [2] was 1 to 100 nM throughout.

`CN(C)S(=O)(=O)N1CCC(c2ccc(-c3cc4nccnc4c(NC[C@@H]4CNCCO4)n3)cc2)CC1` [Compound 499]: the IC50 in assay [1] and in assay [2] was 1 to 100 nM throughout.

`CC(C)c1ccc(-c2cc3nccnc3c(NCC3CCCNC3)n2)cc1` (stereo not drawn) [Compound 46]: the IC50 in assay [1] is 1 to 100 nM; in assay [2], 100 to 1000 nM.

`CNc1ccc(-c2cc3nccnc3c(NCC3CCCNC3)n2)cn1` (stereo not drawn) [Compound 60]: the IC50 in assay [1] is 1 to 100 nM; in assay [2] it was 100 to 1000 nM.

For the compound `COc1ccc(-c2cc3nccnc3c(NCCC(N)=O)n2)cc1F` [Compound 176], the IC50 in assay [1] and in assay [2] was 100 to 1000 nM each time.

With `CC(=O)N1CCN(c2ccc(-c3cc4nccnc4c(NCC4CNCCC4(F)F)n3)cc2F)CC1` (stereo not drawn) [Compound 318], the IC50 in assay [1] and in assay [2] was 1 to 100 nM in each case.

For `Clc1ccc(-c2cc3nccnc3c(NCC3CCCNC3)n2)cc1` (stereo not drawn) [Compound 55], the IC50 was 1 to 100 nM in assay [1] and 100 to 1000 nM in assay [2].

Take `CS(=O)(=O)c1ccc(-c2cc3nccnc3c(NC[C@@H]3CNCCC3(F)F)n2)cc1` [Compound 390, (S)—N-((4,4-difluoropiperidin-3-yl)methyl)-7-(4-(methylsulfonyl)phenyl)pyrido[4,3-b]pyrazin-5-amine]: the IC50 in assay [1] and in assay [2] was 1 to 100 nM throughout.
